This is an account of results in patent publication US20140213641A1, “POLYMERIC NANOPARTICLES FOR DRUG DELIVERY” (INSTITUT QUIMIC DE SARRIA, priority 2011, published 2014).

In data set [1] the test system is CGL-1 cell line. The data set can be described thus: Clonogenic assay (soft agar colony formation). The format is cell-based. To be noted: 336 h, read-out: IC50 (concentration that inhibits 50% of clones); CGL1, experiment 3, serial dilutions 1:5, highest concentration 1000 nM, 14 days colony formation. How it is done:
(§1) A clonogenic assay was carried out to observe the toxicity of decorated paclitaxel-loaded nanoparticles compared with that of paclitaxel and empty nanoparticles on glioma cell lines and determine IC50 values in a long term effect (2 to 3 weeks growth). Nanoparticles with or without a surface-modifying agent (SEQ ID#5) were formed according to the method of example 2, with or without inclusion of paclitaxel.
(§2) Three cells lines were used. The CGL-1 cell line (Oncodesign, Dijon, France) was isolated from the TG-1 tumour subcutaneously (SC) implanted in Nude rat. 14 days were allowed for colony formation. The human U-87 MG cell line (American Type Culture Collection) was initiated from a […] glioblastoma from a person. 21 days were allowed for colony formation. Finally, the LN-229 cell line (American Type Culture Collection) was established in 1979 from cells taken from a patient with right frontal parieto-occipital glioblastoma. 14-21 days were allowed for colony formation.
(§3) The formulations tested were as follows: nanoparticles (stock solution NaCl 0.9%); paclitaxel-loaded nanoparticles (3.33% paclitaxel by weight; stock solution NaCl 0.9%); and paclitaxel (stock solution DMSO 100%). All test substances diluted at 100 μM in their respective vehicle to obtain stock solutions. Five concentrations (1:5 or 1:3 dilution steps) were used in triplicate. Formulations were obtained by diluting stock solutions at 100 μM in their respective vehicle to obtain a series of five concentrations in 1:5 or 1:3 dilution steps. Each solution was then further diluted at 1:20 with RPMI 1640 before final dilution at 1:10 into soft agar.
(§4) Repetitions were carried out for GCL-1 at 2 nM, 8 nM, 40 nM, 200 nM and 1000 nM and for LN-229 at 1.2 nM, 3.7 nM, 11 nM, and 33 nM. At least 2 independent experiments were carried out with top concentrations and dilution steps changed when needed. Cells were incubated for 14 to 21 days with the different treatments.
(§5) Results are given in Table 4 and indicate the % survival from the initial 300 clones. Vehicle results not included (100% survival in all cases). The results are shown graphically in FIGS. 4, 5 and 6. Clonogenic tests are based on clones of cells and not cells alone.

Data set [2] deals with LN-229 cell line. The data set can be described thus: Clonogenic assay (soft agar colony formation). The format is cell-based. Particulars: Homo sapiens. Here is the method: as §1, §2, §3, §4, §5
Data set [3] concerns U-87 MG cell line. The data set can be described thus: Clonogenic assay (soft agar colony formation). The format is cell-based. To be noted: Homo sapiens. Here is the method:
as §1, §2, §3, §4, §5

Data set [4] has as its system CGL1. Particulars: cells treated for few days, read-out: Paclitaxel metabolic assay (historical data) IC50; cited from earlier work.
The test system of data set [5] is U87-MG. To be noted: cells treated for few days, read-out: Paclitaxel metabolic assay (historical data) IC50; cited from earlier work.
The subject of data set [6] is U87-MG. To be noted: read-out: literature IC50 values for paclitaxel alone; cited from earlier work.
Data set [7] can be described thus: in vitro. To be noted: human. Here is the method:
(§6) An ATP-lite assay was carried out over 48 to 72 hours in order to determine cytotoxicity of paclitaxel-loaded nanoparticles comprising a surface-modifying agent compared with that of paclitaxel and empty nanoparticles on healthy brain cell lines and determine IC50 values.
(§7) The formulations tested were as follows: vehicle, empty nanoparticles, decorated paclitaxel-loaded nanoparticles (3.33% paclitaxel by weight; decoration: SEQ ID #5) paclitaxel and etoposide (etoposide is described as having mild toxicity in treatment of brain cancer).
(§8) Three cell lines were tested. Normal human astrocytes (NHA; Lonza) are primary-derived cultures of adherent cells with limited number of divisions. Normal human […] (NHNP; primary cell line; Lonza) are neurosphere growing cells with high number of division that differentiate in adherent […] cells and neurons under specific conditions (laminin coated plates, induction with differentiation factors). Finally, immortalized human neural progenitors (RenCells; Millipore) are fetal brain cells transformed with c-myc oncogene.
(§9) Cells were incubated with treatment for 24 hours (astrocytes) and 72 hours (progenitor cell lines)

In data set [8] the test system is Immortalized human neural progenitors (ReNcells). Particulars: 72 h, 50 μM. Here is the method: as §6, §7, §8, §9
Data set [9] deals with Normal human neural progenitors (NHNP). To be noted: 72 h, 50 μM. Here is the method: as §6, §7, §8, §9

Read-outs that look alike come from different tables or passages of the source.

As for `CC(=O)O[C@H]1C(=O)[C@@]2(C)[C@H]([C@H](OC(=O)c3ccccc3)[C@]3(O)C[C@H](OC(=O)[C@H](O)[C@@H](NC(=O)c4ccccc4)c4ccccc4)C(C)=C1C3(C)C)[C@]1(OC(C)=O)CO[C@@H]1C[C@@H]2O` [Paclitaxel, paclitaxel], the IC50 in data set [1] is 792 nM; in data set [2] (LN-229, read-out: IC50 (concentration that inhibits 50% of clones), LN229, experiment 4, serial dilutions 1:3, highest concentration 100 nM, 14-21 days colony formation), 7.3 nM; in data set [2] (LN-229, read-out: IC50 (concentration that inhibits 50% of clones), LN229, experiment 5, serial dilutions 1:3, highest concentration 100 nM, 14-21 days colony formation) it was 21 nM; in data set [3] (504 h, read-out: IC50 (concentration that inhibits 50% of clones), U87-MG, experiment 2, serial dilutions 1:5, highest concentration 500 nM, 21 days colony formation) it was 2.6 nM; in data set [3] (504 h, read-out: IC50 (concentration that inhibits 50% of clones), U87-MG, experiment 3, serial dilutions 1:5, highest concentration 500 nM, 21 days colony formation), 7.5 nM; in data set [3] (U87-MG cells, test repeated, read-out: IC50, repeated test), 4 to 20 nM. The IC50 in data set [4] is over 100 nM; in data set [5], about 10 nM; in data set [6], 10 to 20 nM.
With `COc1cc([C@@H]2c3cc4c(cc3[C@@H](O[C@@H]3O[C@@H]5CO[C@@H](C)O[C@H]5[C@H](O)[C@H]3O)[C@H]3COC(=O)[C@H]23)OCO4)cc(OC)c1O` [Etoposide, etoposide], in data set [7], the IC50 at 24 h was about 50000 nM. Also, the “% survival” value in data set [8] was 3%; in data set [9], 21%.
